A value given as a limit tells only on which side of the number the result lay.

The record followed here is patent US10668033B2, “Modulators of the prostacyclin (PGI2) receptor useful for the treatment of disorders related thereto” (Arena Pharmaceuticals, Inc., priority 2008, dated 2020).

Series [1] concerns MCT-induced pulmonary arterial hypertension. Kind of series: Rat monocrotaline (MCT) model of pulmonary arterial hypertension. The class given is in vivo. The conditions noted are these: 30 mg/kg oral gavage twice a day for 21 days; 60 mg/kg MCT s.c.; male Wistar rats. The method, then: Male Wistar rats (100-150 g at start of study) (Charles River Laboratories, Wilmington, Mass.) were housed two per cage and maintained in a humidity—(40-60%) and temperature—(68-72° F.) controlled facility on a 12 hr:12 hr light/dark cycle (lights on at 6:30 am) with free access to food (Harlan Teklad, Orange Calif., Rodent Diet 8604) and water. Rats were allowed one week of habituation to the animal facility before testing.
The rat monocrotaline (MCT) model is a standard and well-accepted model of pulmonary arterial hypertension. MCT induces acute pulmonary endothelial damage associated with pulmonary vascular inflammation. […]
Rats were randomly given a single subcutaneous injection of either 60 mg/kg MCT (Sigma, St. Louis, Mo.) or 0.9% saline (sham) and assigned to receive oral administration of 20% hydroxypropyl beta-cyclodextrin (vehicle) or test compound (30 mg/kg; FIGS. 7 and 8). […] Heart chamber weights were measured on Day 22. […] The ratio of right ventricular (RV) weight to left ventricle plus septum (LV+S) weight (this ratio is indicated as “RV/(LV+S)” in FIGS. 7 and 8) was calculated as an index of the hypertrophic response to the induced pulmonary arterial hypertension and, as such, as an index of a test compound's therapeutic efficacy for pulmonary arterial hypertension.

Series [2] can be described thus: Pharmacokinetics in rats after oral administration of Compound 99. The class given is in vivo, Sprague-Dawley rat. The conditions noted are these: for half-life: read-out: terminal phase half-life (T1/2) (converted). The method, then: Blood samples were obtained from 0.100 to 21.0 h post-dose for plasma drug concentration measurements. […] Pharmacokinetic parameters were estimated using non-compartmental pharmacokinetic analysis.

Series [3] in a line: Plasma profile in rats after 10 mg/kg oral dose of Compound 22 sodium salt. The class given is in vivo. The conditions noted are these: rat, after a 10 mg/kg oral dose of Compound 22 (sodium salt, FIG. 25), male rats.
Series [4] is described as follows: Excipient compatibility (stability) study. The class given is physicochemical. The conditions noted are these: four weeks in a glass vial at 50° C. The method, then: Compound 22 was tested for stability in three of the excipients.
For a further series, the system named is human hepatocytes. Kind of series: Hepatocyte metabolism of Compound 22 sodium salt, human. The class given is in vitro ADME. The conditions noted are these: 100 μM, up to 240 min. The procedure:
(§1) All cryopreserved hepatocytes were thawed and diluted to a desired cell density (1×10^6 cells/mL) according to the supplier's (Xenotech) guidelines using hepatocytes isolation kit. Cell viability was determined by trypan blue exclusion using a hemacytometer. A typical incubation mixture contained human, cynomolgus monkey, beagle dog or Sprague-Dawley rat hepatocytes (200,000 cells/199 μL) in designated wells of a 48-well plate containing incubation medium (Phenol red-free Waymouth's medium). […] One incubation plate was prepared for each time point (i.e., 0, 60, 120, and 240 min) with samples being prepared in duplicate. Incubations were conducted at 37° C., 5% CO2 and 100% relative humidity in an incubator. At each time point, one incubation plate was removed form the incubator, and reaction was terminated by adding 400 μL of acetonitrile containing an internal standard. For the 0 min time point, the reactions were kept on ice before adding Compound 22 sodium salt. After 5 min on ice, the reaction mixture was terminated by adding 400 μL of acetonitrile containing an internal standard. Supernatants were transferred to labeled strip tubes with caps, which were vortexed for 3 min, and then sonicated for an additional 3 min. The samples were centrifuged for 10 min at 4000 rpm and the supernatants were used for metabolite identification. […]

For series [5], the system named is cynomolgus monkey hepatocytes. Briefly: Hepatocyte metabolism of Compound 22 sodium salt, monkey. The class given is in vitro ADME. The conditions noted are these: 100 μM, up to 240 min. The procedure:
as §1

The next series concerns beagle dog hepatocytes. Briefly: Hepatocyte metabolism of Compound 22 sodium salt, dog. The conditions noted are these: 100 μM, up to 240 min. The class given is in vitro ADME. The method, then: as §1
For series [6], the system named is Sprague-Dawley rat hepatocytes. Briefly: Hepatocyte metabolism of Compound 22 sodium salt, rat. The class given is in vitro ADME. The conditions noted are these: 100 μM, up to 240 min. The method, then:
as §1

Series [7] is described as follows: In vivo metabolism of Compound 22 sodium salt in bile-duct cannulated rats. On the set-up: species or system Sprague-Dawley rat. The method, then: Three bile-duct cannulated male Sprague-Dawley rats were dosed intravenously (IV) at 2.00 mg/kg. In addition to plasma samples, bile and urine were collected from 0 to 48 hours post-dose.
The nature of series [8]: Dynamic vapor sorption (DVS) hygroscopicity. The class given is physicochemical. The conditions noted are these: at 90% relative humidity; listed as Form 1 of the sodium salt of Compound 22. The procedure:
Hygroscopicity was measured using a dynamic moisture-sorption analyzer, VTI Corporation, SGA-100. The sample was placed as-is in a tared sample holder on the VTI balance. A drying step was run at 40° C. and ˜1% RH for 60 to 120 min. The isotherm conditions are 25° C. with steps of 20% RH from 10% RH up to 90% RH and back to 10% RH. The weight was checked every 2 min. Percent weight change of <0.01% in 20 min or 2 h, whichever occurs first, is required before continuing to the next step.

Series [9] is described as follows: Excipient solubility study.
Protocol: The solubility of 2-(((1r,4r)-4-(((4-chlorophenyl)(phenyl)carbamoyloxy)methyl)cyclohexyl)methoxy)acetic acid (Compound 22) and sodium 2-(((1r,4r)-4-(((4-chlorophenyl)(phenyl)carbamoyloxy)methyl)cyclohexyl)methoxy)acetate (Compound 22 sodium salt) in various excipients was measured.
Setting [10] is: Sprague-Dawley, rat, plasma analyte after 1.25 mg/kg oral dose of Compound 99, male rats.
Setting [11] is: plasma analyte after 1.25 mg/kg oral dose of Compound 99, male rats.

As for `O=C(O)COC[C@H]1CC[C@H](COC(=O)N(c2ccccc2)c2ccc(Cl)cc2)CC1` [Compound 22, 2-(((1r,4r)-4-(((4-chlorophenyl)(phenyl)carbamoyloxy)methyl)cyclohexyl)methoxy)acetic acid], in [1], the “hypertrophic response, RV/(LV+S)” value is given as “inhibited the hypertrophic response”. Moreover, in series [2] (setting [10]), the area under the curve AUC(0-t) (in general, the area under the concentration-time curve up to a stated or last time point) amounted to 935 ng·h/mL; the concentration peaked (Cmax) at 214 ng/mL; the half-life is 3.51 h. The “time of Cmax” value in series [2] (setting [11]) is 2.67 h. Moreover, the Tmax (as a rule, the time from dosing to the highest level) in series [3] was 1.5 h. Further, the stability in solution entry in [4] (Cremophor RH 40) is given as “no observable degradation or API assay loss”. The stability in solution entry in series [4] (Imwitor 742) is given as “no observable degradation or API assay loss”. The stability in solution entry in [4] (TPGS 1000) is on record as “no observable degradation or API assay loss”.

In the case of `O=C(COC[C@H]1CC[C@H](COC(=O)N(c2ccccc2)c2ccc(Cl)cc2)CC1)NCCS(=O)(=O)O` [Compound 99, 2-(2-(((1r,4r)-4-(((4-chlorophenyl)(phenyl)carbamoyloxy)methyl)cyclohexyl)methoxy)acetamido) ethanesulfonic acid], the “metabolite of Compound 22 sodium salt in human hepatocytes” value in the series on human hepatocytes is given as “detected”. Moreover, the “metabolite of Compound 22 sodium salt in monkey hepatocytes” value in series [5] is on record as “detected”. Besides, the “metabolite of Compound 22 sodium salt in dog hepatocytes” value in the series with beagle dog hepatocytes is listed as “detected”. Besides, in series [6], the “metabolite of Compound 22 sodium salt in rat hepatocytes” value is “detected”. For the same compound, in [7] (2.00 mg/kg IV of Compound 22 sodium salt, bile 0 to 48 hours), the metabolite in bile result is “observed in bile”. Besides, the metabolite in urine result in series [7] (2.00 mg/kg IV of Compound 22 sodium salt, urine 0 to 48 hours) is “not observed in urine”. Moreover, the “metabolite of Compound 22 sodium salt in rats” value in [7] (2.00 mg/kg IV, male rats) is given as “major metabolite”. In addition, in series [2] (1.25 mg/kg oral dose in rats), the conversion to parent entry is listed as “converted to Compound 22” and the exposure result is “minimal exposure”. Also, in [2] (setting [10]), the AUC(0-t) is 11.9 ng·h/mL; the Cmax (as a rule, the peak of the concentration-time curve) at 3.33 h turned out to be 1.93 ng/mL; the half-life was 3.24 h. For the same compound, the Tmax in series [2] (male, Sprague-Dawley, rat, plasma, 10 mg/kg, after oral dose of the taurine conjugate of Compound 22) worked out at 3 h. In series [2] (setting [11]), the “time of Cmax” value was 3.33 h.

On to `O=C([O-])COC[C@H]1CC[C@H](COC(=O)N(c2ccccc2)c2ccc(Cl)cc2)CC1.[Na+]` [Sodium Salt of Compound 22, sodium 2-(((1r,4r)-4-(((4-chlorophenyl)(phenyl)carbamoyloxy)methyl)cyclohexyl)methoxy)acetate], for which the DVS absorption entry in series [8] is reported as “less than 0.25%”. Further, the Solubility – broadly, how much of the substance goes into solution per volume – was under 100 µg/mL in [9] (Corn Oil); 7820 µg/mL in [9] (Cremophor RH 40); 1610 µg/mL in series [9] (Gelucire 44/14); under 10000 µg/mL in series [9] (Gelucire 50/13); 16200 µg/mL in [9] (Imwitor 742); 12980 µg/mL in [9] (Labrasol). The “Solubility” value in series [9] (Lauroglycol 90) was 260 µg/mL; in [9] (PEG400), 4850 µg/mL; in series [9] (PEG6000), under 10000 µg/mL; in series [9] (Safflower oil) it was under 100 µg/mL; in series [9] (TPGS 1000), 2550 µg/mL.
